Data taken from BigSolDB 2.1.

C[C@H]1COc2c(N3CCN(C)CC3)c(F)c(N)c3c(=O)c(C(=O)O)cn1c23.Cl
solubility (mole fraction)
Conditions	273.15 K	278.15 K	283.15 K	288.15 K	293.15 K	298.15 K	303.15 K	308.15 K	313.15 K	318.15 K
in acetonitrile	2.41e-06	2.73e-06	3.11e-06	3.59e-06	4.1e-06	4.68e-06	5.36e-06	6.07e-06	6.9e-06	7.84e-06
in ethanol	9.29e-06	1.06e-05	1.22e-05	1.39e-05	1.59e-05	1.78e-05	2.02e-05	2.29e-05	2.56e-05	2.87e-05
in water	0.000436	0.000564	0.000725	0.000971	0.00126	0.00161	0.00204	0.00253	0.00311	0.00376
